“And” between values parts separate entries of the source, which are not always exact repeats. Identical values can stand only once. Numbers after ± are expanded uncertainties.
Details: Liquid, Closed cell (Static) method

SMILES | vapor or sublimation pressure (253.15 K) | vapor or sublimation pressure (273.15 K) | vapor or sublimation pressure (293.15 K)
FCC(F)(F)F [1,1,1,2-tetrafluoroethane] | 133.5 ± 2.1 kPa | 291.8 ± 2.2 kPa | 572.1 ± 2.6 kPa
C1CC1 [cyclopropane] | 171.3 ± 2.1 kPa and 171.2 ± 2.1 kPa | 344.1 ± 2.3 kPa and 344.7 ± 2.3 kPa | 631.7 ± 2.8 kPa and 632.2 ± 2.8 kPa
FC(F)C(F)(F)F [pentafluoroethane] | 337.3 ± 2.3 kPa | 672.1 ± 2.9 kPa | 1204.7 ± 4.1 kPa

From the NIST ThermoML archive (doi:10.1016/j.fluid.2006.10.023)
